Source: patent US11154477B2, “Use of alkanolamine alkylamides as humectants” (Akzo Nobel Chemicals International B.V., priority 2016, dated 2021)

Experiments:
[1] = Dynamic Vapor Sorption (DVS) measurement of water absorption by humectants; assay type: physicochemical; settings: for Percentage of water absorbed based on weight of the tested compound: 25° C., equilibrium
Procedure: Dynamic Vapor Sorption (DVS) technique was used to measure the moisture intake of a specific compound at certain humidity level. A DVS Intrinsic instrument manufactured by Surface Measurement Systems UK Ltd. (London, United Kingdom) was used to measure DVS. The following measurement procedure was used to determine the water vapor absorption of a specific compound.
A uniform aqueous solution of a specific, target compound was made at 50% concentration. About 1.2 to 1.6 mg of the prepared aqueous solution was added to DVS instrument at zero tare balance. The temperature was then set at 25° C., and the measurement was performed at various humidity levels. The first measurement was performed at a humidity of 90% to ensure that the sample absorbs the highest level of water in order to minimize the mass transfer barrier during the evaporation process. The typical humidity measurements were then taken at 50%, 40%, 30%, 20%, 10%, and 0% humidity. The dynamics of water absorption was determined by the weight change per minute. If weight change per minute was less than 0.005% of the sample weight, it was deemed that water absorption had reached the equilibrium point. The equilibrium weight at 0% humidity is the sample weight by itself. Thus, the percentage of equilibrium water absorption at various humidity levels was calculated.
Using the above procedure, DVS was used to evaluate water absorption for DGA Acetamide as compared to hydroxyethyl urea and glycerol at different humidity levels.

[2] = test system: skin (inner forearm of each panelist); assay: Corneometer measurement of skin moisture after a single application of gel formulation; assay type: in vivo; settings: 5 wt % gel, average of eight panelists
Procedure: To prepare a gel formulation, deionized water was added to a 4 oz. tall jar that was set up for mixing using an overhead mixer and a jiffy blade. The water was then mixed at a speed that created a good vortex that nearly reached the bottom of the jar (e.g., about 700 rpm). To this, Carbopol® 940 (cross-linked polyacrylate polymer available from Lubrizol, […], Ohio) was slowly added and mixed for at least 15 minutes until homogeneous. Triethanolamine (TEA) was then added and the mixing speed was adjusted overhead to about 200 rpm and continued mixing for about 10 minutes (e.g., product viscosity increased). To this mixture, 5 wt % of the sample compound in its pure form (or hydroxyethyl urea or glycerol control) was added followed by 0.5 wt % GlydantTM PlusTM (a preservative available from Lonza, Basel, Switzerland) and the remaining, balance water. Mixing was continued at 200 rpm for about 15-20 minutes. The mixture was then removed from the mixer and the final pH was measured. […] Moisture levels were measured using a Corneometer® CM 825 (available from CK Industries) prior to and at various time intervals after the sample application at a temperature of 22° C. and relative humidity of 50%, wherein the corneometer values recorded are the difference between the corneometer reading at a given time and the initial corneometer reading at 0 hours, which is set at zero. […]

Row | Structure (SMILES) | Percentage of water absorbed based on weight of the tested compound ([1]; 10% rel. humidity) [%] | Percentage of water absorbed based on weight of the tested compound ([1]; 20% rel. humidity) [%] | Percentage of water absorbed based on weight of the tested compound ([1]; 30% rel. humidity) [%] | Percentage of water absorbed based on weight of the tested compound ([1]; 40% rel. humidity) [%] | Percentage of water absorbed based on weight of the tested compound ([1]; 50% rel. humidity) [%] | water absorption capability (comparison in words) ([1]; 50% relative humidity) | water absorption capability (comparison in words) ([1]; relative humidity levels of 10%, 20% 30%, and 40%) | humectance performance (corneometer) versus glycerol ([2]; at 24 hours) | corneometer readings versus control (water) formulation ([2]; entire time range tested (24 hours), 22° C., 50% relative humidity)
1 | CC(=O)NCCOCCO [DGA acetamide, N-acetyl diglycolamine] | 2.6 | 5.9 | 9.9 | 15.3 | 26.9 | on par with glycerol | on par with that for hydroxyethyl urea | same as glycerol | superior to the control formulation
2 | OCC(O)CO [Glycerol, glycerol] | 4.6 | 8.6 | 15.9 | 23.3 | 27.7 | – | – | – | –
3 | NC(=O)NCCO [Hydroxyethyl urea, hydroxyethyl urea] | 2.4 | 5.4 | 9.2 | 14.1 | 19.7 | – | – | – | –
